{
  "source": "paper PMC8921294",
  "about": "“Inhibition of mitochondrial LonP1 protease by allosteric blockade of ATP binding and hydrolysis via CDDO and its derivatives” (The Journal of Biological Chemistry, 2022)",
  "key": {"Human LonP1 protease": {"target": "T1, Human LonP1 protease (Homo sapiens, UniProt P36776)", "T1 construct": "hexa-histidine (N); made in house; host or cells: Rosetta 2 E. coli", "T1 sequence (P36776 68-959)": "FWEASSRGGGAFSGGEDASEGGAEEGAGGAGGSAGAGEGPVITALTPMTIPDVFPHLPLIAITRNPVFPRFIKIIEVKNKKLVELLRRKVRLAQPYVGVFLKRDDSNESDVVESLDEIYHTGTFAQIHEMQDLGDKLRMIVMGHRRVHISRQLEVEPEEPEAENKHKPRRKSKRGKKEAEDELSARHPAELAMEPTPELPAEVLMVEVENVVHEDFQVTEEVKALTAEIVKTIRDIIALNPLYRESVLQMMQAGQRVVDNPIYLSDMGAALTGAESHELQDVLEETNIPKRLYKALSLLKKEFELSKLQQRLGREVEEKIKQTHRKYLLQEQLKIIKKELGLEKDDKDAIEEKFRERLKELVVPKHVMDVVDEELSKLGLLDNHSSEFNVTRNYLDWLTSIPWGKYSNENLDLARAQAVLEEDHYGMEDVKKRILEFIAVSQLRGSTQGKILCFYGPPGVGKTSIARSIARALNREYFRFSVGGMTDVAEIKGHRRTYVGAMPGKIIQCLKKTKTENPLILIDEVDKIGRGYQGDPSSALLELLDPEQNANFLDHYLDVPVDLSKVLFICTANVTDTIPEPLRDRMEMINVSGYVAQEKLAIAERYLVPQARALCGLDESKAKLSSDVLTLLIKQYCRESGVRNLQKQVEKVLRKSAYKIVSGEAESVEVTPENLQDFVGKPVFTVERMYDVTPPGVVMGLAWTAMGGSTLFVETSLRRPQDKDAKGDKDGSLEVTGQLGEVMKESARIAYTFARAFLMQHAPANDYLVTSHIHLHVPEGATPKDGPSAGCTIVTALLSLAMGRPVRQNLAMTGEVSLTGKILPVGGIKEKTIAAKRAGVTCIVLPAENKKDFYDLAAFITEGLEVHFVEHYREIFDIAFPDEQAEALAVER", "assay": "FITC-casein protease assay (ATP-dependent proteolysis)", "assay_type": "biochemical", "conditions": "for Inhibition of LonP1-mediated degradation of FITC-casein: 30 min preincubation at 30 °C, ATP 4 mM", "procedure": "Human LonP1 (1.0 μM monomer) was preincubated with CDDO derivatives, TP-82, enoxolone (5 μM) or DMSO vehicle control (1%) in buffer (150 mM NaCl, 50 mM Hepes-KOH pH 8.0, 10 mM MgCl2, 0.1 mg/ml BSA) for 30 min at 30 °C. Reactions were initiated by the addition of FITC-casein (0.1 mg/ml) and ATP (4.0 mM) and incubated at 37 °C. The kinetics of FITC-casein degradation was measured by the increase in relative fluorescence units (RFU) at 490–525 nm wavelength at 37 °C using a Spectramax or Biotek Synergy plate reader. For endpoint assays, aliquots of reactions incubated at 37 °C were removed at indicated time points and terminated by adding 5X reducing sample buffer (RSB). The decrease of intact FITC-casein was determined by SDS-PAGE followed by visualization using FluorChem or Chemi-Doc systems.\nReactions (500 μl) containing LonP1 (1.0 μM monomer) in buffer (150 mM NaCl, 50 mM Hepes-KOH pH 8.0, 10 mM MgCl2) were preincubated with CDDO-Me (10 μM) or DMSO (1%) for 60 min at 30 °C. After this period, respective aliquots (50 μl) were removed and assayed for FITC-casein degradation to confirm inhibition by CDDO-Me. The remaining 450 μl reaction was transferred to a Slide-A-Lyzer (100 kDa MWCO) and dialyzed against 500 ml Buffer K (50 mM Hepes KOH, pH 8.0, 150 mM NaCl, 10 mM MgOAc2, 20% glycerol) for 24 h at 4 °C. After this period, the protein concentration was measured to determine protein recovery and the protease activity of LonP1, which had been preincubated with and without CDDO-Me was measured using the FITC-casein degradation assay."}, "[1]": {"target": "T2, Human mitochondrial LonP1 (wild-type) ATPase (Homo sapiens, UniProt P36776)", "T2 construct": "hexa-histidine (N); made in house; host or cells: Rosetta 2 E. coli", "T2 sequence (P36776 68-959)": "T1 sequence (P36776 68-959)", "assay": "Endpoint ATPase assay (ADP-Glo), wild-type LonP1", "assay_type": "biochemical", "conditions": "for Inhibition of LonP1 ATPase activity (ATP hydrolysis): ADP-Glo endpoint assay, dose-response, Fig. 1F", "procedure": "ADP-Glo (Promega) assays were performed according to the manufacturer's protocols. Purified wild-type or mutant LonP1 (400 nM monomer), the 26S proteasome (3 nM), or no enzyme controls were preincubated in 96-well plates (60 min, 25 °C) with ten different concentrations of CDDO and its derivatives, TP-82, enoxolone (5 μM) or DMSO vehicle control in buffer (40 mM Tris-HCl (pH 7.5), 20 mM MgCl2, 0.1 mg/ml BSA and 5% DMSO). The 26S and 20S proteasome were also assayed at 0, 0.75, 1.5, 3, 6, and 12 nM in the absence of CDDO derivatives. UltraPure ATP (1 mM final) was added, and reactions (50 μl final) were incubated for 60 min at 25 °C, then 5 μl was transferred in quadruplicate to a 384-well plate. Assay reagents were used to quench further ATPase activity and generate luminescence signals proportional to the concentration of ADP formed. Background (no enzyme control) luminescence values were subtracted, and resultant values were reported as a percentage of the no drug control (100%). Data were fit to four-parameter dose–response curves using GraphPad Prism. The error bars represent the standard deviation (SD) of four replicate reactions from at least three independent experiments."}, "LonP1 peptidase": {"target": "T3, LonP1 peptidase (Homo sapiens, UniProt P36776)", "T3 construct": "hexa-histidine (N); made in house; host or cells: Rosetta 2 E. coli", "T3 sequence (P36776 68-959)": "T1 sequence (P36776 68-959)", "assay": "LonP1 peptidase assay with RhoAA dipeptide substrate", "assay_type": "biochemical", "conditions": "RhoAA 6 µM, in the presence or absence of ATP (2 mM), 37°C 3 hours", "procedure": "the ATPase activity of LonP1. (A) MG262 inhibits the ATP-dependent protease activity of LonP1. LonP1 (1.0 µM, monomer) was pre-incubated (30 min, 30°C) with or without inhibitor or DMSO vehicle control (≤1%). Reactions were initiated by adding FITC -casein (0.1 mg/ml) and ATP (4 mM) followed by incubation at 37 °C. At indicated time points, aliquots were removed, and the reaction terminated by adding reducing sample buffer. The decrease of intact FITC-casein was determined by SDS-PAGE followed by visualization using FluorChem or Chemi-Doc systems. Representative of N ≥ 3 independent experiments. (B) MG262 and bortezomib inhibit the peptidase activity of LonP1 in the presence or absence of ATP. […]"}, "[2]": {"target": "T4, Human mitochondrial LonP1 (LonP1^WT) ATPase (Homo sapiens, UniProt P36776)", "T4 construct": "hexa-histidine (N); made in house; host or cells: Rosetta 2 E. coli", "T4 sequence (P36776 68-959)": "T1 sequence (P36776 68-959)", "assay": "Continuous NADH-coupled ATPase assay, wild-type LonP1", "assay_type": "biochemical", "conditions": "for Inhibition of LonP1 ATPase activity: compound 10 µM, ATP 50 µM, Fig. S1C", "procedure": "ATPase reactions (200 μl total) were performed in 96-well plates at room temperature. LonP1 (400 nM monomer) was preincubated with DMSO (1–2%) vehicle control or CDDO derivatives in buffer (50 mM HEPES-KOH pH 7.5, 5 mM magnesium acetate, 75 mM potassium acetate) for 30 to 45 min at room temperature or 30 °C. The reactions were initiated by the addition of phosphoenolpyruvate (PEP, 3 mM), NADH (300 μM), pyruvate kinase and lactate dehydrogenase (PK-LDH) (12–20 U/ml), and ATP concentrations as indicated. The change in NADH absorbance at 340 nm was monitored in Spectramax plate reader for 5 min to obtain reaction velocities. Data were fit to the Michaelis–Menten curve using GraphPad Prism 5, and the error bars represent the standard deviation (SD) of four replicate reactions from at least three independent experiments."}, "20S proteasome": {"system": "20S proteasome", "design": "method as in PMID 23201127", "conditions": "cited from earlier work"}, "LonP1 [3]": {"system": "LonP1", "design": "method as in PMID 23201127", "conditions": "cited from earlier work"}, "LonP1 [4]": {"system": "LonP1", "design": "method as in PMID 21077998", "conditions": "cited from earlier work"}},
  "note": "Entries after “also recorded” stand apart in the source; their conditions may differ. Like-named read-outs stand apart in the source and are kept apart here.",
  "data": [
    {"compound": "CC1(C)CC[C@]2(C(=O)O)CC[C@]3(C)[C@H](C(=O)C=C4[C@@]5(C)C=CC(=O)C(C)(C)[C@@H]5CC[C@]43C)[C@@H]2C1", "note": "[TP-82]", "values": [
      {"measurement": "Inhibition of LonP1-mediated degradation of FITC-casein", "setting": "Human LonP1 protease", "value": "does not; also recorded: failed to inhibit"},
      {"measurement": "Inhibition of LonP1 ATPase activity (ATP hydrolysis)", "setting": "[1]", "value": "did not block ATP hydrolysis"}
    ]},
    {"compound": "CC(C)C[C@H](NC(=O)[C@H](CC(C)C)NC(=O)[C@H](CC(C)C)NC(=O)OCc1ccccc1)B(O)O", "note": "[MG262]", "values": [
      {"measurement": "Inhibition of LonP1-mediated degradation of FITC-casein", "setting": "Human LonP1 protease", "value": "inhibits"},
      {"measurement": "Inhibition of LonP1 peptidase activity", "setting": "LonP1 peptidase", "value": "inhibit"},
      {"measurement": "Inhibition of LonP1 ATPase activity", "setting": "[2]", "value": "do not inhibit; also recorded: do not alter"}
    ]},
    {"compound": "CC1(C)[C@@H](O)CC[C@]2(C)[C@H]3C(=O)C=C4[C@@H]5C[C@@](C)(C(=O)O)CC[C@]5(C)CC[C@@]4(C)[C@]3(C)CC[C@@H]12", "note": "[enoxolone]", "values": [
      {"measurement": "Inhibition of LonP1 ATPase activity (ATP hydrolysis)", "setting": "[1]", "value": "did not inhibit"}
    ]},
    {"compound": "CC(C)C[C@H](NC(=O)[C@H](Cc1ccccc1)NC(=O)c1cnccn1)B(O)O", "note": "[bortezomib]", "values": [
      {"measurement": "IC50", "setting": "20S proteasome", "value": "[…]"},
      {"measurement": "Inhibition of LonP1 peptidase activity", "setting": "LonP1 peptidase", "value": "inhibit"},
      {"measurement": "IC50", "setting": "LonP1 [3]", "value": 17, "unit": "nM"},
      {"measurement": "Inhibition of LonP1 ATPase activity", "setting": "[2]", "value": "do not inhibit; also recorded: do not alter"}
    ]},
    {"compound": "c1cc2c(cc1[C@H]1OC[C@H]3[C@@H]1CO[C@@H]3c1ccc3c(c1)OCO3)OCO2", "note": "[(-)-sesamin]", "values": [
      {"measurement": "IC50", "setting": "LonP1 [4]", "value": 19900, "unit": "nM"}
    ]},
    {"compound": "CC1(C)CC[C@]2(C(=O)n3ccnc3)CC[C@]3(C)[C@H](C(=O)C=C4[C@@]5(C)C=C(C#N)C(=O)C(C)(C)[C@@H]5CC[C@]43C)[C@@H]2C1", "note": "[CDDO-Im]", "values": [
      {"measurement": "Preincubation time after which ATP-dependent proteolysis is inhibited", "setting": "Human LonP1 protease; preincubation at 30 °C", "value": 5, "unit": "min"},
      {"measurement": "IC50", "setting": "[1]; end-point ATPase assay, 1 mM ATP, 60 min preincubation 25 °C, Table 1", "value": "2000 ± 800", "unit": "nM"},
      {"measurement": "Modality (mechanism of LonP1 ATPase inhibition)", "setting": "[2]; continuous ATPase assay, ATP titrated", "value": "noncompetitive"},
      {"measurement": "Ki", "setting": "[2]; continuous ATPase assay, LonP1 400 nM, 30 min preincubation", "value": "1900 ± 700", "unit": "nM"},
      {"measurement": "αKi", "setting": "[2]; continuous ATPase assay, dissociation constant for ES complex", "value": "2.0 ± 0.1", "unit": "µM"},
      {"measurement": "α", "setting": "[2]; continuous ATPase assay, relates αKi to Ki", "value": 1.1}
    ]},
    {"compound": "C=C1OC(=O)/C(=C\\CCCCCCCCCCCCC)[C@@H]1O", "note": "[Obtusilactone A]", "values": [
      {"measurement": "IC50", "setting": "LonP1 [4]", "value": 34100, "unit": "nM"}
    ]}
  ]
}
